BindingDB's records for patent WO2024074497 (Forx Therapeutics, 2024)

Target: T1, Poly(ADP-ribose) glycohydrolase [448-976,L473S,N479S,S802A,R811K,M841I,S858P,I916T,T924D,D927K,C963S,A967T] (UniProt Q86W56, A967T/C963S/D927K/I916T/L473S/M841I/N479S/R811K/S802A/S858P/T924D)
T1 construct: 448-976
Assay: PARG enzymatic IC50 assay
Method: PARG enzyme as incubated with compound or vehicle (DMSO) for 15 minutes or 2 hours in a 384 well plate. After adding the PARG substrate ADP-ribose-pNP, the plate was read for absorbance intensity at 405 nm. The vehicle (DMSO) with high absorbance intensity represents no inhibition of enzymatic reaction while the low control (no enzyme) with low absorbance intensity represents full inhibition of enzymatic reaction.

T1 sequence (Q86W56 448-976 L473S/N479S/S802A/R811K/M841I/S858P/I916T/T924D/D927K/C963S/A967T): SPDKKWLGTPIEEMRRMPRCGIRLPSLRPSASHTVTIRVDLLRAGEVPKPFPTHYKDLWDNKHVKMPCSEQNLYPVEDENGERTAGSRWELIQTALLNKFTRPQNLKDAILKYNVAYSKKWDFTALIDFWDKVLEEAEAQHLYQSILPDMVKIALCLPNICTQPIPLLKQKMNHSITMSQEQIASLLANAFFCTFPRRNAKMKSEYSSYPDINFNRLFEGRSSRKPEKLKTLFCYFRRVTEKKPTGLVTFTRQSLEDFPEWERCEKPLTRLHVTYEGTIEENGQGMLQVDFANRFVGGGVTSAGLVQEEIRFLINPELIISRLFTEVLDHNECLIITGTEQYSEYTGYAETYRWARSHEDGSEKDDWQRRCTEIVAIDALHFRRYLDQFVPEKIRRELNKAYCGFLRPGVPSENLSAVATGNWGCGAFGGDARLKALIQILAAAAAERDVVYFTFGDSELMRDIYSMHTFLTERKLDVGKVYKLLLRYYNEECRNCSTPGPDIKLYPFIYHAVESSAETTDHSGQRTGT

- IC50: 110 nM
Compound: C[C@H]1CN(c2cc(S(=O)(=O)NC3(C)CC3)cn3c(-c4nnc(C(F)F)s4)ncc23)C[C@H](C)N1 [WO2024074497, Example 1]
